Drawing on patent publication US20210070684A1, “PRODUCTION OF HIGHLY PURE META,META-COUPLED BIS(4-ALKYLPHENOL) DERIVATIVES AND USES THEREOF” (KATHOLIEKE UNIVERSITEIT LEUVEN, priority 2017, published 2021), this text covers melting point for 1 compound.

What is called melting point is the temperature of the solid-liquid transition.

For the compound `COc1cc(C)c(Cc2cc(O)c(OC)cc2C)cc1O` [Reference Example 1, 5,5′-methylenebis(2-methoxy-4-methylphenol)], the melting point was in the range of 134 to 136 °C.
